Tests used:
[1] = tested on: Sprague-Dawley rats; test: Home cage feeding test (HCFT); format: in vivo, rat; settings: naïve rats, Luma 1 mg/kg IP days 1 and 3; control 6.0
From the text: Novelty Suppressed Feeding Test (NSFT). This test measures consumption of a familiar food in a novel environment, relying on rodents' aversion to eating in a novel environment after a period of food deprivation ([…] and Dulawa, “Identifying fast-onset antidepressants using rodent models,” Mol. Psychiatry 22:656-665 (2017)). Rats are food-deprived overnight and placed in an open field (76.5×76.5×40 cm^3) with a small amount of food pellets (6 pellets total). At the time of the test, rats are exposed to the open field for the first time (novelty) and allowed to explore it for a maximum of 15 minutes under red light. The latency for the animal to approach the food pellets and take its first bite is manually scored. A home cage feeding test (HCFT) is performed afterwards to ensure latency measured in NSFT is not a matter of difference in hunger. A home cage food intake analysis evaluated the amount of food eaten (in grams) over a period of 10 minutes following the end of the entire test session.

[2] = tested on: hippocampal gene expression (NanoString gene sets); test: NanoString nCounter hippocampal gene expression after coinjection of LPS and lumateperone; format: in vivo, mouse
From the text: NanoString. The mouse neuropathology panel includes 770 genes associated with themes of neurotransmission, neuron-glia interaction, neuroplasticity, cell structure integrity, neuroinflammation and metabolism. A total of 13 housekeeping genes are used for expression normalization (Aars: NM_146217.4, Asb10: NM_080444.4, Ccdc127: NM_024201.3, Cnot10: NM_153585.5, Csnk2a2: NM_009974.3, Fam104a: NM_138598.5, Gusb: NM_010368.1, Lars: NM_134137.2, Mtol: NM_026658.2, Supt7l: NM_028150.1, Tada2b: NM_001170454.1:3224, Tbp: NM_013684.3:70, and Xpnpepl: NM_133216.3:1826, see FIG. 1-1). Hippocampal RNA is extracted using the Qiagen microkit (Qiagen) and is evaluated by the Agilent 2100 Bioanalyzer (Agilent Technologies, Santa Clara, CA) to assess RNA concentration, quality, and integrity. Sample preparation, hybridization, and detection (100 ng per sample, n=5-6 per group) are carried out according to NanoString manufacturer's instructions (NanoString Technologies, Seattle, WA). The normalized data are transformed to log 2 score to express the fold change. NanoString results (raw and normalized counts) are derived from RCC files using the nSolver software (version 2.6; NanoString Technologies). A complementary gene software analysis tool, ROSALIND® Advanced Analysis Software (NanoString Technologies), is also used, which provides comprehensive free cloud-based data analysis for nCounter data by directly analyzing raw RCC files generated from NanoString. Data are imported into ROSALIND® Advanced Analysis Software for normalization, calculation of fold-changes, P values, identification of enriched pathways, and heatmaps.
The NanoString platform has been effectively used to quantitatively measure in vivo gene expression of target genes in several neuropathological mouse models.
It is calculated similarly to a unidirected global significance score, but it takes into account the sign of the t-statistic. Scores were calculated by nSolver software, using the control group as a reference.
Next, using ROSALIND® Advanced Analysis Software and a filter set to P<.

[3] = Inflammation gene, LPS 500 μg/kg + Luma 3 mg/kg, 2 h
[4] = Microglia gene, LPS 500 μg/kg + Luma 3 mg/kg, 2 h
[5] = Neuroprotect gene, LPS 500 μg/kg + Luma 3 mg/kg, 2 h

CN1CCN2c3c(cccc31)[C@@H]1CN(CCCC(=O)c3ccc(F)cc3)CC[C@@H]12 [Lumateperone, 4-((6bR,10aS)-3-methyl-2,3,6b,9,10,10a-hexahydro-1H-pyrido[3′,4′: 4,5]pyrrolo[1,2,3-de]quinoxaline-8 (7H)-yl)-1-(4-fluorophenyl)-1-butanone]
Control HCFT food eaten [1]: 6.0 g | Casp4 hippocampal expression, Log2, LPS + Luma vs LPS [2, 3]: −2.24 | Ccr2 hippocampal expression, Log2, LPS + Luma vs LPS [2, 3]: −1.71 | Ikbkb hippocampal expression, Log2, LPS + Luma vs LPS [2, 3]: −0.132 | Il1b hippocampal expression, Log2, LPS + Luma vs LPS [2, 3]: −1.42 | Il1r1 hippocampal expression, Log2, LPS + Luma vs LPS [2, 3]: −0.309 | Lrg1 hippocampal expression, Log2, LPS + Luma vs LPS [2, 3]: −1.67 | Ly6a hippocampal expression, Log2, LPS + Luma vs LPS [2, 3]: −0.925 | Myd88 hippocampal expression, Log2, LPS + Luma vs LPS [2, 3]: −0.433 | Nfkb2 hippocampal expression, Log2, LPS + Luma vs LPS [2, 3]: −0.972 | Osmr hippocampal expression, Log2, LPS + Luma vs LPS [2, 3]: −1.21 | Socs3 hippocampal expression, Log2, LPS + Luma vs LPS [2, 3]: −1.57 | Tnfrsf1a hippocampal expression, Log2, LPS + Luma vs LPS [2, 3]: −0.434 | Tnfrsf1b hippocampal expression, Log2, LPS + Luma vs LPS [2, 3]: −0.31 | Directed global significance score vs control group, gene set Oligodendrocyte function ([2]; LPS 500 μg/kg + Luma 3 mg/kg coinjected, 2 h, LPS alone 0.181): 0.48 | Directed global significance score vs control group, gene set Insulin signaling ([2]; LPS 500 μg/kg + Luma 3 mg/kg coinjected, 2 h, LPS alone 0.28): 0.809 | Directed global significance score vs control group, gene set Epigenetic regulation ([2]; LPS 500 μg/kg + Luma 3 mg/kg coinjected, 2 h, LPS alone 0.312): 0.892 | Directed global significance score vs control group, gene set Microglia function ([2]; LPS 500 μg/kg + Luma 3 mg/kg coinjected, 2 h, LPS alone 0.377): 0.915 | Directed global significance score vs control group, gene set Cellular stress ([2]; LPS 500 μg/kg + Luma 3 mg/kg coinjected, 2 h, LPS alone 0.499): 0.813 | Directed global significance score vs control group, gene set Carbohydrate metabolism ([2]; LPS 500 μg/kg + Luma 3 mg/kg coinjected, 2 h, LPS alone 0.507): 0.668 | Directed global significance score vs control group, gene set Adaptive immune response ([2]; LPS 500 μg/kg + Luma 3 mg/kg coinjected, 2 h, LPS alone 0.571): 0.938 | Directed global significance score vs control group, gene set DNA damage ([2]; LPS 500 μg/kg + Luma 3 mg/kg coinjected, 2 h, LPS alone 0.578): 0.042 | Directed global significance score vs control group, gene set Autophagy ([2]; LPS 500 μg/kg + Luma 3 mg/kg coinjected, 2 h, LPS alone 0.588): 0.548 | Directed global significance score vs control group, gene set Growth factor signaling ([2]; LPS 500 μg/kg + Luma 3 mg/kg coinjected, 2 h, LPS alone 0.76): 0.698 | Directed global significance score vs control group, gene set Notch ([2]; LPS 500 μg/kg + Luma 3 mg/kg coinjected, 2 h, LPS alone 0.876): 1.05 | Directed global significance score vs control group, gene set Apoptosis ([2]; LPS 500 μg/kg + Luma 3 mg/kg coinjected, 2 h, LPS alone 0.915): −0.453 | Directed global significance score vs control group, gene set Innate immune response ([2]; LPS 500 μg/kg + Luma 3 mg/kg coinjected, 2 h, LPS alone 0.939): −0.655 | Directed global significance score vs control group, gene set Cytokine signaling ([2]; LPS 500 μg/kg + Luma 3 mg/kg coinjected, 2 h, LPS alone 0.993): −0.599 | Directed global significance score vs control group, gene set Inflammatory signaling ([2]; LPS 500 μg/kg + Luma 3 mg/kg coinjected, 2 h, LPS alone 1.086): −0.93 | Directed global significance score vs control group, gene set NF-kB ([2]; LPS 500 μg/kg + Luma 3 mg/kg coinjected, 2 h, LPS alone 1.215): −0.689 | Directed global significance score vs control group, gene set Astrocyte function ([2]; LPS 500 μg/kg + Luma 3 mg/kg coinjected, 2 h, LPS alone 1.391): −0.308 | Directed global significance score vs control group, gene set Angiogenesis ([2]; LPS 500 μg/kg + Luma 3 mg/kg coinjected, 2 h, LPS alone −0.144): 0.891 | Directed global significance score vs control group, gene set Cell cycle ([2]; LPS 500 μg/kg + Luma 3 mg/kg coinjected, 2 h, LPS alone −0.148): 0.385 | Directed global significance score vs control group, gene set Lipid metabolism ([2]; LPS 500 μg/kg + Luma 3 mg/kg coinjected, 2 h, LPS alone −0.192): 0.89 | Directed global significance score vs control group, gene set Neurons and neurotransmission ([2]; LPS 500 μg/kg + Luma 3 mg/kg coinjected, 2 h, LPS alone −0.422): 0.979 | Directed global significance score vs control group, gene set Wnt ([2]; LPS 500 μg/kg + Luma 3 mg/kg coinjected, 2 h, LPS alone −0.476): 1.186 | Directed global significance score vs control group, gene set Matrix remodeling ([2]; LPS 500 μg/kg + Luma 3 mg/kg coinjected, 2 h, LPS alone −0.583): 0.447 | genes that promote inflammation (e.g., Osmr, Tnfrsf1a, Tnfrsf11b, Prl, Il1r1), ROSALIND analysis ([2]; LPS+Luma versus LPS alone, filter P<.04999): significantly downregulates | Directed global significance score vs control group, gene set Adaptive immune response ([2]; Luma alone): 0.344 | Directed global significance score vs control group, gene set Angiogenesis ([2]; Luma alone): 0.616 | Directed global significance score vs control group, gene set Apoptosis ([2]; Luma alone): −0.442 | Directed global significance score vs control group, gene set Astrocyte function ([2]; Luma alone): −0.837 | Directed global significance score vs control group, gene set Autophagy ([2]; Luma alone): −0.731 | Directed global significance score vs control group, gene set Carbohydrate metabolism ([2]; Luma alone): −0.837 | Directed global significance score vs control group, gene set Cell cycle ([2]; Luma alone): −0.75 | Directed global significance score vs control group, gene set Cellular stress ([2]; Luma alone): −0.432 | Directed global significance score vs control group, gene set Cytokine signaling ([2]; Luma alone): −0.543 | Directed global significance score vs control group, gene set DNA damage ([2]; Luma alone): −0.614 | Directed global significance score vs control group, gene set Epigenetic regulation ([2]; Luma alone): 0.729 | Directed global significance score vs control group, gene set Growth factor signaling ([2]; Luma alone): 0.226 | Directed global significance score vs control group, gene set Inflammatory signaling ([2]; Luma alone): −1.032 | Directed global significance score vs control group, gene set Innate immune response ([2]; Luma alone): −0.611 | Directed global significance score vs control group, gene set Insulin signaling ([2]; Luma alone): 0.858 | Directed global significance score vs control group, gene set Lipid metabolism ([2]; Luma alone): −0.818 | Directed global significance score vs control group, gene set Matrix remodeling ([2]; Luma alone): −0.4 | Directed global significance score vs control group, gene set Microglia function ([2]; Luma alone): 0.466 | Directed global significance score vs control group, gene set NF-kB ([2]; Luma alone): −0.499 | Directed global significance score vs control group, gene set Neurons and neurotransmission ([2]; Luma alone): 0.435 | Directed global significance score vs control group, gene set Notch ([2]; Luma alone): 0.834 | Directed global significance score vs control group, gene set Oligodendrocyte function ([2]; Luma alone): −1.176 | Directed global significance score vs control group, gene set Wnt ([2]; Luma alone): 0.9 | Cd36 hippocampal expression, Log2, LPS + Luma vs LPS [2, 4]: 0.332 | Cx3cr1 hippocampal expression, Log2, LPS + Luma vs LPS [2, 4]: 0.231 | Maff hippocampal expression, Log2, LPS + Luma vs LPS [2, 4]: 1.21 | P2ry12 hippocampal expression, Log2, LPS + Luma vs LPS [2, 4]: 0.14 | Ptgs2 hippocampal expression, Log2, LPS + Luma vs LPS [2, 4]: −0.358 | Tmem100 hippocampal expression, Log2, LPS + Luma vs LPS [2, 4]: 0.186 | Tmem144 hippocampal expression, Log2, LPS + Luma vs LPS [2, 4]: 0.227 | Cldn5 hippocampal expression, Log2, LPS + Luma vs LPS [2, 5]: 0.812 | Egr1 hippocampal expression, Log2, LPS + Luma vs LPS [2, 5]: 0.87 | Fos hippocampal expression, Log2, LPS + Luma vs LPS [2, 5]: 2.27 | Ngf hippocampal expression, Log2, LPS + Luma vs LPS [2, 5]: 0.126 | Vegfa hippocampal expression, Log2, LPS + Luma vs LPS [2, 5]: 0.227

Reference: patent US20250195510A1, “NOVEL METHODS” (priority 2022, published 2025)
